Data set [1] deals with 5-hydroxytryptamine receptor 4 (Cavia porcellus) (UniProt O70528). Conditions: Ileum.
Description: Evaluated for the agonistic activity against 5-HT4 receptor in non-electrically stimulated guinea-pig ileum.
For data set [2] the target is unchanged. Briefly: Agonistic activity against Serotonin 5-HT4 receptor in low frequency field stimulation of guinea-pig ileum (FSGPI). Format: functional, tissue-based.
The target of data set [3] is Serotonin 3 (5-HT3) receptor. In words: Antagonistic activity against Serotonin 5-hydroxytryptamine 3 receptor in isolated rabbit vagus nerve (RVN). The data set is classed as functional, tissue-based, Oryctolagus cuniculus.
Data set [4] deals with 5-hydroxytryptamine receptor 4 (Cavia porcellus) (UniProt O70528). Briefly: Agonistic activity against Serotonin 5-hydroxytryptamine 4 receptor in low frequency field stimulation of guinea-pig ileum (FSGPI). The data set is classed as functional, tissue-based.
For data set [5] the target is unchanged. In words: Agonistic activity against Serotonin 5-hydroxytryptamine 4 receptor in non-electrically stimulated guinea-pig ileum. The data set is classed as functional, tissue-based.
For data set [6], the target named is Serotonin 3 (5-HT3) receptor. In words: Antagonistic activity against Serotonin 5-hydroxytryptamine 3 receptor of isolated guinea pig ileum (GPI). The data set is classed as functional, tissue-based, Cavia porcellus.
For data set [7], the target named is T1, Serotonin 3 (5-HT3) receptor (Homo sapiens) (UniProt P46098+A5X5Y0+O95264+Q70Z44+Q8WXA8). In words: Evaluated for the antagonistic activity against Serotonin 5-hydroxytryptamine 3 receptor in isolated rabbit vagus nerve (RVN). Format: functional, tissue-based. Conditions: Oryctolagus cuniculus, target entry is the homologue from another species.
Data set [8] addresses T1, Serotonin 3 (5-HT3) receptor (Homo sapiens). Briefly: Evaluated for the antagonistic activity against Serotonin 5-hydroxytryptamine 3 receptor in isolated guinea pig ileum (GPI). The data set is classed as functional, tissue-based. Conditions: Cavia porcellus, target entry is the homologue from another species.
Data set [9] addresses 5-hydroxytryptamine receptor 4 (Cavia porcellus) (UniProt O70528). Conditions: Ileum. This is another data set of the same source.
Description: pD2 value in the non-electrically stimulated guinea pig ileum
In data set [10] the target is T2, Serotonin 3 receptor (5HT3) (Mus musculus) (UniProt Q9JHJ5+P23979). In words: Compound was evaluated for binding to Serotonin 5-hydroxytryptamine 3 receptor in N1E cells using [3H]- -Tropisetron as radioligand. Format: cell-based.
T2 sequence (P23979 whole entry, looked up): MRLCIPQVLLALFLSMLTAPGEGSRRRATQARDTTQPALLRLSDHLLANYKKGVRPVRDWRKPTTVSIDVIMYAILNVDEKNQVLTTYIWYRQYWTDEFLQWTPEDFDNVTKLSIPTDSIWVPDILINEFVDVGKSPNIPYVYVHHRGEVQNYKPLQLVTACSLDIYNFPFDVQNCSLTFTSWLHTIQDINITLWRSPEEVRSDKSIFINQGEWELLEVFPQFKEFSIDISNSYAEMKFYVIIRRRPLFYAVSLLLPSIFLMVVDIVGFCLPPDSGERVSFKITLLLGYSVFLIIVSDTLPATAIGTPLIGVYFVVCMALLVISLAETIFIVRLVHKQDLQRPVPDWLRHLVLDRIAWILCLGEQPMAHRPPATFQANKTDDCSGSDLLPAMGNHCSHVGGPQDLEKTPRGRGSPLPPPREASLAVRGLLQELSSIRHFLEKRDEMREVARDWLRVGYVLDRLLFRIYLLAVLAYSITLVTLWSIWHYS
T2 sequence (Q9JHJ5 whole entry, looked up): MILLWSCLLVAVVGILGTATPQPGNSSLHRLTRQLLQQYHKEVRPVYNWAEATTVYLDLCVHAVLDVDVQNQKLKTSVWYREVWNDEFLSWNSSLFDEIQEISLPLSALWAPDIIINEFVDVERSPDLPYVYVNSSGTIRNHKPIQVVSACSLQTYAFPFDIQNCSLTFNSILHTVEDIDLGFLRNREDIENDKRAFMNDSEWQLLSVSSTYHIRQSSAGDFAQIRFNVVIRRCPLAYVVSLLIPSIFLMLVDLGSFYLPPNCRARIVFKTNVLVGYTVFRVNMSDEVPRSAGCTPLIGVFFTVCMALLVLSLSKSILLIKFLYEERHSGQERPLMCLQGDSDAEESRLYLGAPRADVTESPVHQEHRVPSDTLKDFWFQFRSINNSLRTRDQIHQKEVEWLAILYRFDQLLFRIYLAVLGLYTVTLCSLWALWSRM
The species entered for a further data set is Rattus norvegicus. In words: Effective dose inhibited the Bezold-Jarisch reflex in rats was determined. Format: functional.
Data set [11] deals with 5-hydroxytryptamine receptor 4 (Cavia porcellus, UniProt O70528). Briefly: Evaluated for the antagonistic activity against Serotonin 5-hydroxytryptamine 4 receptor in non-electrically stimulated guinea-pig ileum. The data set is classed as functional, tissue-based. Conditions: read-out: pA2 (converted).
Sequence of 5-hydroxytryptamine receptor 4 (O70528 whole entry): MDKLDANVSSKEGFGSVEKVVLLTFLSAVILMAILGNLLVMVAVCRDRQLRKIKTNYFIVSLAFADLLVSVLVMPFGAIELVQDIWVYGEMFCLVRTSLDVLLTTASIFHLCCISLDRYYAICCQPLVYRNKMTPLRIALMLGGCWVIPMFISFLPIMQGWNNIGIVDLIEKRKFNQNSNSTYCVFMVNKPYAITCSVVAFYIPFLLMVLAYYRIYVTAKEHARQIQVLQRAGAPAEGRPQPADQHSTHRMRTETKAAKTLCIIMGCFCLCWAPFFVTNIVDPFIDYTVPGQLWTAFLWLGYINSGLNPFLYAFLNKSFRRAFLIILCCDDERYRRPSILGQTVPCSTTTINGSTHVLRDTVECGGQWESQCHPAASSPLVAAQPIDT
Data set [12] can be described thus: pKa value was determined. The data set is classed as physicochemical.
Data set [13] addresses Serotonin 3 (5-HT3) receptor. Briefly: (§1) Evaluated for the antagonistic activity against Serotonin 5-hydroxytryptamine 3 receptor in isolated perfused rabbit heart (RH). The data set is classed as functional, Oryctolagus cuniculus.
The target of data set [14] is 5-hydroxytryptamine receptor 4 (Cavia porcellus) (UniProt O70528). Briefly: Evaluated for the agonistic activity against Serotonin 5-HT4 receptor in non-electrically stimulated guinea-pig ileum. Format: functional, tissue-based.
Data set [15] deals with T1, Serotonin 3 (5-HT3) receptor (Homo sapiens). Described as §1. Conditions: Oryctolagus cuniculus; target entry is the homologue from another species. Format: functional.
Data set [16] addresses Serotonin 3 (5-HT3) receptor. Briefly: Evaluated for the antagonistic activity against 5-hydroxytryptamine 3 receptor in isolated perfused rabbit heart (RH). Format: functional, Oryctolagus cuniculus.
For data set [17], the target named is Serotonin 3 (5-HT3) receptor. In words: Evaluated for the antagonistic activity against 5-hydroxytryptamine 3 receptor in isolated rabbit vagus nerve (RVN). The data set is classed as functional, tissue-based, Oryctolagus cuniculus.
For data set [18], the target named is T2, Serotonin 3 receptor (5HT3) (Mus musculus). In words: Compound was evaluated for binding to 5-hydroxytryptamine 3 receptor in N1E cells using [3H]- -Tropisetron as radioligand. Format: cell-based.

These results are taken from ChEMBL document CHEMBL1126420, “Design and synthesis of novel ligands for the 5-HT3 and the 5-HT4 receptor” (Bioorg Med Chem Lett, 1992).

Sequence of 5-hydroxytryptamine receptor 4 (Cavia porcellus) (O70528 whole entry): as above

For `NCCc1c[nH]c2ccc(O)cc12`, the figures for the pD2 in data set [1] and in data set [2] were 7.9 and 7, respectively.
Turning to `Nc1c(Cl)cc(C(=O)NC2CN3CCC2CC3)c2nsnc12` (configuration not stated), the pA2 (in general, the negative logarithm of the molar antagonist concentration that doubles the agonist concentration needed for the same response) in data set [3] worked out at 8.9; in [6], 7.7. The pD2 in data set [4] was 5.8; in data set [5] it was 5.5.
On to `NCCc1ccnc2ccc(O)cc12`, for which the figures for the pD2 in data set [7] and in [8] were 5.8 and 4.5, respectively.
Compound `CN1[C@@H]2CC[C@H]1C[C@@H](OC(=O)c1c[nH]c3ccccc13)C2` [TROPISETRON] yielded a pD2 in data set [9] of 5.7. In addition, the negative logarithm of the KD (pKD) (as a rule, −log10 of the KD, conventionally taken in molar units) in [10] turned out to be 9.1. Moreover, the 50% effect level in the data set listed under Rattus norvegicus (ED50) was put at a dose of 0.72 µg/kg. For the same compound, the Kb in data set [11] is 2000 nM. Moreover, the pKa (as a rule, the negative logarithm of the acid dissociation constant) in data set [12] was 8.4.
For `COc1cc(N)c(Cl)cc1C(=O)N[C@H]1CCN(CCCOc2ccc(F)cc2)C[C@H]1OC` [CISAPRIDE], the pA2 in [3] was found to be 6.5; in data set [6], 7.2; in data set [13] it was 7.1. This compound also displayed a pD2 in data set [4] of 6.
On to `CCN(CC)CCOC(=O)c1cc(Cl)c(N)cc1OC`, for which, in data set [14], the pD2 worked out at 7.
Regarding `NCCC1CCCc2ccc(O)cc21` (configuration not stated), the pD2 in [15] was found to be 5.7; in data set [7], 6; in [8], 5.2.
In the same order, the values of `Cc1[nH]c2ccc(O)cc2c1CCN` are 5.5, 5.6 and 5.1.
With `COc1cc(N)c(Cl)cc1C(=O)N[C@H]1CCN2CCC[C@@H]1C2`, the pD2 in [4] worked out at 7.1; in [5] it was 5.7. In data set [13], the pA2 is reported as 8.6.
In the case of `Nc1c(Cl)cc(C(=O)NC2CCN3CCCC2C3)c2nsnc12` (configuration not stated), the pA2 is 7.7 in data set [3] and 6.8 in [6]. Besides, the pD2 came to 7.2 in [4] and 6 in data set [5].
For the compound `Nc1c(Cl)cc(C(=O)NC2CN3CCC2CC3)c2ncccc12` (configuration not stated), the results for the pA2 in data set [3] and in data set [6] were 9 and 7.9, respectively. Moreover, the values for the pD2 in data set [4] and in data set [5] were 7.2 and 6, respectively.
Take `CCN(CC)CCNC(=O)c1cc(Cl)c(N)cc1OC` [METOCLOPRAMIDE]: the pD2 in data set [4] came to 5.5. In addition, the figures for the pA2 in [6] and in data set [13] were 5.2 and 7.1, respectively.
For `Nc1c(Cl)cc(C(=O)NC2CCN3CCCC2C3)c2ncccc12` (configuration not stated), the values for the pD2 in [4] and in [5] were 7.5 and 7.1, respectively. The compound further yielded a pA2 in data set [6] of 6.7.
Take `COc1cc(N)c(Cl)cc1C(=O)NC1CN2CCC1CC2` (configuration not stated): the pD2 in data set [4] was found to be 6.2; in [5] it was 5.9.
As for `O=C(CC1CC2CCC(C1)N2)c1c[nH]c2cc(O)ccc12` (configuration not stated), the values for the pD2 in data set [15] and in data set [7] were 6 and 7, respectively. This compound also yielded a pA2 in data set [6] of 6.
With `CCN(CC)CCN1CCc2cc(N)c(Cl)cc2C1=O`, the pD2 in data set [14] came out at 5.1; in data set [2] it was 5.2.
Compound `Cc1[nH]c2ccc(O)cc2c1CC(=N)NCCCN1CCCC1=O` displayed a pD2 in data set [2] of 5.8.
Regarding `CCN(CC)Cc1coc(-c2cc(Cl)c(N)cc2OC)n1`, the pD2 in [14] is 6; in data set [2] it was 6.1.
Consider `CN1C2CC(OC(=O)c3c[nH]c4ccccc34)CC1C1OC12` (configuration not stated), for which the pA2 in data set [16] is 11; in data set [17], 10.6; in data set [6], 8.8. This compound displayed a pD2 in data set [4] of 0. The pKD in data set [10] amounted to 9.2. For the same compound, the Kb in [11] was 501 nM. The pKa in data set [12] stood at 6.64.
As to `N/C(Cc1c[nH]c2ccc(O)cc12)=N\CCc1c[nH]c2ccc(O)cc12`, in data set [2], the pD2 is 6.3.
The compound `Cc1nccn1CC1CCc2c(c3ccccc3n2C)C1=O` (configuration not stated) came in with a pD2 in data set [4] of 5.1. Further, the pKD in data set [18] was 7.7.
Turning to `COc1ccc2[nH]ccc2c1C(=O)NC1CN2CCC1CC2` (configuration not stated), the pD2 was found to be 6.6 in [4] and 7.1 in [5]. Also, in data set [6], the pA2 is reported as 7.2.
Consider `N#Cc1[nH]c2ccc(O)cc2c1CCN`, for which the pD2 in data set [15] was found to be 4; in [7] it was 7.2; in [8] it was 5.4.
